# Measurements as given in patent publication US20230181678A1, “NOVEL ANTIBACTERIAL PEPTIDE OR PEPTIDE ANALOG AND USE THEREOF” (CAMP THERAPEUTICS INC., priority 2020, published 2023).
# Square brackets hold non-standard residues; d marks the D form. * marks the point of attachment. Octanoyl = CCCCCCCC(=O)*; Dab = NCC[C@H](N)C(=O)O; Hexanoyl = CCCCCC(=O)*
# What was measured:
# [1] = system: Acinetobacter baumannii ATCC 17978; assay: MIC assay, sensitizing effect of peptide on antibiotics; format: cell-based; conditions: for sensitizing ability to erythromycin and novobiocin: recap of Example 1; for MIC reduction effect (fold reduction) of erythromycin: peptide 0.4 uM with erythromycin vs erythromycin alone
# Protocol: Each peptide at a concentration of 0.4 uM was used together with the two gram-positive antibiotics erythromycin and novobiocin to identify their effect on Acinetobacter baumannii ATCC 17978 (MIC assay). Acinetobacter baumannii, which is Gram-negative bacteria commonly classified as an opportunistic pathogen, is a human-infecting bacterium with a high probability of nosocomial infection because it has broad-spectrum antibacterial resistance and is able to survive for a long time even in a low-humidity environment. For each of the gram-positive antibiotics, as compared with MIC of each antibiotic in a case of being used alone, fold reduction of MIC of each antibiotic was measured in a case where each antibiotic was used together with each peptide.
# All MIC assay experiments were performed using the Clinical and Laboratory Standards Institute (CLSI) guidelines (Clinical & Laboratory Standards Institute: CLSI Guidelines, 2017). […] The cells were inoculated at 1.5×10^5 CFU per 200 μL solution of each well in a 96-well plate. The peptide and the antibiotic were prepared using 2-fold serially diluted concentrations. […] Incubation was performed at 37° C. for 18 hours, and then absorbance was measured at 600 nm using an EPOCH2 microplate reader (BioTek, Winooski, USA) to calculate a MIC value. […] Fold reduction was calculated using the following expression.
# (§1) Fold reduction=MIC of antibiotic alone/MIC of antibiotic in presence of sensitizing peptide
# The same MIC assay method as in Example 3 was used.
# (§2) ATCC 25922, A.b. ATCC 17978, K.p. ATCC 700603, and P.a. ATCC 27853, or CRE (E.c. NDM-1, K.p. NDM-1, or K.p. KPC) (FIGS. 9 and 10).
# host cells = conditions: cited from earlier work
# Gram-negative bacteria = conditions: cited from earlier work
# [2] = system: Acinetobacter baumannii ATCC 17978; assay: MIC assay, sensitizing effect of peptide on antibiotics; format: cell-based
# P.a. ATCC 27853 = assay: MIC assay, sensitizing effect of peptide on rifampicin or colistin; format: cell-based, Pseudomonas aeruginosa; conditions: peptide 4 ug/ml
# Protocol: (§3) All MIC assay experiments were performed using the Clinical and Laboratory Standards Institute (CLSI) guidelines (Clinical & Laboratory Standards Institute: CLSI Guidelines, 2017). Bacterial cells cultured overnight were diluted to 0.05 McFarland standard using McFarland (KIT […] PLUS INSTRUMENT, Biomerieux) in Muller Hinton II Broth (cation-adjusted) (Difco). The cells were inoculated at 1.5×10^5 CFU per 200 μL solution of each well in a 96-well plate. The peptide and the antibiotic were prepared using 2-fold serially diluted concentrations. […] Incubation was performed at 37° C. for 18 hours, and then absorbance was measured at 600 nm using an EPOCH2 microplate reader (BioTek, Winooski, USA) to calculate a MIC value. The MIC value was defined as a concentration of the antibiotic or peptide at which bacterial growth was inhibited to a level of lower than 10% growth of the positive control. Fold reduction was calculated using the following expression.
# as §2
# K.p. KPC = assay: MIC assay, sensitizing effect of peptide on rifampicin or colistin (CRE); format: cell-based, Klebsiella pneumoniae; conditions: peptide 4 ug/ml
# Protocol: as §3, §2
# E. coli clinical strains = assay: MIC50 and MIC90 in clinical strains with CMP1709 (colistin); format: cell-based; conditions: CMP1709 4 ug/ml with colistin vs colistin alone; results not shown
# Source text: (§4) The selected clinical strains E. coli, K. pneumoniae, E. cloacae, C. freundii, and S. marcescens were all carbapenem-resistant strains, and the selected clinical strain P. aeruginosa included 43 strains of imipenem- and meropenem-resistant strains, and 60 strains of imipenem- and meropenem-sensitive strains.
# (§5) The results are illustrated in FIG. 11 (results not shown for colistin). The “Fold reduction of MIC90” in FIG. 11 indicates a MIC90 value observed in a case where the antibacterial agent was used in combination with CMP1709 as compared with a case where the antibacterial agent was used alone.
# [3] = system: E. cloacae clinical strains; assay: as above; format: cell-based; conditions: CMP1709 4 ug/ml with colistin vs colistin alone; results not shown
# Source text: as §4, §5
# E. coli NDM-1 = assay: Neutropenic mouse thigh infection model; format: in vivo
# E. coli ATCC 25922 = assay: MIC assay, sensitizing effect of peptide on antibacterial agents; format: cell-based
# Protocol: as §3, §1
# Using the same MIC assay method as in Example 1, sensitizing effects of the peptide L9P (CMP1107, 1 ug/ml), which is known as a conventional sensitive AMP, and CMP1401 (1 ug/ml) were compared on existing antibacterial agents against E. coli ATCC 25922 (FIG. 5A).
# In addition, MIC screening was used to compare sensitizing effects of the competitive drug SPR741 and the peptide CMP1401 or CMP1501 on the existing antibacterial agents against E. coli ATCC 25922 (FIGS. 5B and 5C). SPR741, which is a previously known polymyxin B (PMB) analog, is a sensitive AMP, and is a drug that has been identified through preclinical experiments to be effective against Gram-negative bacteria in a case of being used together with existing Gram-positive antibiotics.
# as §2
# Kp NDM-1 = assay: MIC assay, sensitizing effect of peptide on rifampicin (CRE); format: cell-based, Klebsiella pneumoniae; conditions: FIG. 9F; Kp NDM-1 (CRE); peptide 4 ug/ml
# Protocol: as §3, §2
# K.p. ATCC 700603 = assay: MIC assay, sensitizing effect of peptide on rifampicin; format: cell-based, Klebsiella pneumoniae; conditions: FIG. 9C, peptide 4 ug/ml
# Protocol: as §3, §2
# [4] = system: E.c. ATCC 25922, A.b. ATCC 17978, K.p. ATCC 700603, P.a. ATCC 27853, or CRE (E.c. NDM-1, K.p. NDM-1, or K.p. KPC); assay: MIC assay, comparison with L9P on rifampicin or colistin; format: cell-based; conditions: FIGS. 9 and 10
# Protocol: as §3, §2
# Ec NDM-1 = assay: MIC assay, sensitizing effect of peptide on rifampicin (CRE); format: cell-based, E. coli; conditions: FIG. 9E; Ec NDM-1 (CRE); peptide 4 ug/ml
# Protocol: as §3, §2
# [5] = system: inner membrane of E. coli ATCC 25922; assay: Enzyme assay, inner membrane leakage (β-galactosidase release, ONPG); format: cell-based; conditions: 1.5 mM ONPG
# Protocol: (§6) It was observed, through an enzyme assay, whether the sensitizing peptide destroyed the outer and inner membranes of Gram-negative bacteria. In the presence of the sensitizing peptide, it was observed whether in a case where 1.5 mM ONPG was used together therewith, β-galactosidase was released from E. coli ATCC 25922 for the inner membrane, and whether in a case where 200 μM CENTA was used together therewith, β-lactamase was released from E. coli NDM-1 for the outer membrane.
# To determine leakage of the inner membrane, release of the cytoplasmic enzyme β-galactosidase was evaluated. The bacteria were diluted to OD600=1 and 1.5 mM ONPG (O-nitrophenyl-β-D-galactopyranoside) was added. Absorbance of a product of enzyme reaction was measured at 420 nm. The other procedures were carried out in the same manner as in the experiment for outer membrane destruction.
# [6] = system: outer membrane of E. coli NDM-1; assay: Enzyme assay, outer membrane leakage (β-lactamase release, CENTA); format: cell-based; conditions: peptide 0.63 or 1.30 uM, 37° C., 1 h; 200 μM CENTA
# Protocol: as §6
# Specifically, to determine leakage of the outer membrane, activity of the β-lactamase released from the outer membrane was evaluated. New Delhi metallo-β-lactamase-1 (NDm-1)-producing E. coli cells were washed three times with DPBS and suspended in the same buffer. The cells were diluted to an OD600 of 0.2 and treated with the peptide at a concentration of 0.63 or 1.30 uM at 37° C. for 1 h. After centrifugation, the supernatant was incubated with 200 μM CENTATM β-lactamase substrate at 37° C. for 1 hour. An optical density was obtained by measuring absorbance of a product of enzyme reaction at 405 nm using a microplate reader (Molecular Devices Co., Menlo Park, Calif.).
# The results are illustrated in FIGS. 12A and 12B. The y-axis is absorbance measured at 405 nm, and higher absorbance is observed as a higher amount of β-lactamase is released due to destruction of the membrane.
substance,measurement,setting,value
Ac-AKLLKLLKKPLKLLK-NH2 [CMP1301],sensitizing ability to erythromycin and novobiocin,[1],excellent sensitizing ability
Ac-KKALKLLKKPLKLLK-NH2 [CMP1303],MIC reduction effect (fold reduction) of erythromycin,[1],8 times
Ac-KKLLKLAKKPLKLLK-NH2 [CMP1307],MIC reduction effect (fold reduction) of erythromycin,[1],8 times
same,sensitizing ability to erythromycin and novobiocin,[1],excellent sensitizing ability
Ac-KKLLKLLKKPLKLLK-NH2 [CMP1203],MIC reduction effect (fold reduction) of erythromycin,[1],two times
Ac-KLLKLLKKPLKLLK-NH2 [CMP1107],toxicity to host cells,host cells,low toxicity to host cells
same,efficacy against E. coli,Gram-negative bacteria; Korean Patent No. 1811437,weak efficacy against E. coli
same,destruction of membranes of Gram-negative bacteria (known property),Gram-negative bacteria; previously known sensitizing peptide,known to not destroy the membranes of Gram-negative bacteria
HexA-KKALKLAKKPLKLLK-NH2 (Hexanoyl-KKALKLAKKPLKLLK-NH2) [CMP1406],sensitizing effect for fusidic acid,"[2]; peptide 0.31 μM, vs fusidic acid alone",32 times
same,sensitizing effect for novobiocin,"[2]; peptide 0.31 μM, vs novobiocin alone",8 times
same,sensitizing effect for rifampicin,"[2]; peptide 0.31 μM, vs rifampicin alone",8 times
OctA-DabDabAFDabVADabDabPLSLLDab-NH2 (Octanoyl-[Dab][Dab]AF[Dab]VA[Dab][Dab]PLSLL[Dab]-NH2; SMILES CCCCCCCC(=O)N[C@@H](CCN)C(=O)N[C@@H](CCN)C(=O)N[C@@H](C)C(=O)N[C@@H](Cc1ccccc1)C(=O)N[C@@H](CCN)C(=O)N[C@H](C(=O)N[C@@H](C)C(=O)N[C@@H](CCN)C(=O)N[C@@H](CCN)C(=O)N1CCC[C@H]1C(=O)N[C@@H](CC(C)C)C(=O)N[C@@H](CO)C(=O)N[C@@H](CC(C)C)C(=O)N[C@@H](CC(C)C)C(=O)N[C@@H](CCN)C(N)=O)C(C)C) [CMP1709],Decreased MIC value of rifampicin at peptide concentration of 4 ug/ml,P.a. ATCC 27853; FIG. 9D,0.25 µg/mL
same,Decreased MIC value of colisitin at peptide concentration of 4 ug/ml,P.a. ATCC 27853; FIG. 10B,0.063 µg/mL
same,Decreased MIC value of rifampicin at peptide concentration of 4 ug/ml,K.p. KPC; FIG. 9G,0.0078 µg/mL
same,Decreased MIC value of colisitin at peptide concentration of 4 ug/ml,K.p. KPC; FIG. 10C,0.50 µg/mL
same,sensitizing effect with colistin,E. coli clinical strains,two times
same,sensitizing effect with colistin,[3],two times
same,decrease in number of colonies compared with rifampicin alone,E. coli NDM-1; CMP1709 75 mg/kg in the presence of 20 mg/kg of rifampicin,8.7 fold
same,"number of colonies, peptide administered alone",E. coli NDM-1; CMP1709 alone,No changes were observed in the number of colonies
same,therapeutic efficacy of combination therapy with rifampicin,E. coli NDM-1; rifampicin and CMP1709,excellent therapeutic efficacy
same,Decreased MIC value of rifampicin at peptide concentration of 4 ug/ml,"E. coli ATCC 25922; FIG. 9A, E.c. ATCC 25922, peptide 4 ug/ml",0.0020 µg/mL
same,Decreased MIC value of colisitin at peptide concentration of 4 ug/ml,"E. coli ATCC 25922; FIG. 10A, E.c. ATCC 25922, peptide 4 ug/ml",0.016 µg/mL
same,Decreased MIC value of rifampicin at peptide concentration of 4 ug/ml,Kp NDM-1,0.0078 µg/mL
same,Decreased MIC value of rifampicin at peptide concentration of 4 ug/ml,K.p. ATCC 700603,0.0078 µg/mL
same,sensitizing effect on rifampicin or colistin compared with L9P,[4],very good sensitizing effect
same,Decreased MIC value of rifampicin at peptide concentration of 4 ug/ml,"[2]; FIG. 9B, A.b. ATCC 17978, peptide 4 ug/ml",0.078 µg/mL
same,Decreased MIC value of rifampicin at peptide concentration of 4 ug/ml,Ec NDM-1,0.0040 µg/mL
OctA-DabDabALDabLADabDabPLDabLLDab-NH2 [CMP1501],sensitizing effect on existing antibacterial agents compared with SPR741,E. coli ATCC 25922; FIGS. 5B and 5C,almost the same or much better sensitizing effect
same,sensitizing effects on rifampicin and linezolid,E. coli ATCC 25922; peptide 0.5 ug/ml,excellent sensitizing effects
same,sensitizing effect compared with SPR741 at half its concentration,"E. coli ATCC 25922; peptide concentration decreased by half as compared with SPR741, FIG. 5C",equal or superior effect
OctA-KKLLKLLKKPLKLLK-NH2 (Octanoyl-KKLLKLLKKPLKLLK-NH2; SMILES CCCCCCCC(=O)N[C@@H](CCCCN)C(=O)N[C@@H](CCCCN)C(=O)N[C@@H](CC(C)C)C(=O)N[C@@H](CC(C)C)C(=O)N[C@@H](CCCCN)C(=O)N[C@@H](CC(C)C)C(=O)N[C@@H](CC(C)C)C(=O)N[C@@H](CCCCN)C(=O)N[C@@H](CCCCN)C(=O)N1CCC[C@H]1C(=O)N[C@@H](CC(C)C)C(=O)N[C@@H](CCCCN)C(=O)N[C@@H](CC(C)C)C(=O)N[C@@H](CC(C)C)C(=O)N[C@@H](CCCCN)C(N)=O) [CMP1407],destruction of inner membrane (β-galactosidase release),[5],did not destroy these membranes
same,destruction of outer membrane (β-lactamase release),[6],did not destroy these membranes
